Legend:
[1] = molecular target: Human immunodeficiency virus type 1 integrase (Human immunodeficiency virus 1, UniProt Q7ZJM1); experiment: Inhibition of HIV-1 integrase after 1 hr by strand transfer activity assay
[2] = tested on: Human immunodeficiency virus 1; experiment: Antiviral activity against HIV-1 infected in human TZM-bl cells after 40 to 48 hrs by beta-galactosidase assay; type: functional, organism-based; conditions: Human immunodeficiency virus 1, TZM-bl

Chain of Human immunodeficiency virus type 1 integrase (Q7ZJM1 whole entry): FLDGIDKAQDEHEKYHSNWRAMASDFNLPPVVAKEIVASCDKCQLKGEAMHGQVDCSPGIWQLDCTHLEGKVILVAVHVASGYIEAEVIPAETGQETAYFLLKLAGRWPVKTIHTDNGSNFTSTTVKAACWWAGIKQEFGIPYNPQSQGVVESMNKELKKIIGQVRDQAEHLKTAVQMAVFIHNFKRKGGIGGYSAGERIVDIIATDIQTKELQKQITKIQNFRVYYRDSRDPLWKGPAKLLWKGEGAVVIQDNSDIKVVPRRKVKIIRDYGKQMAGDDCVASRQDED

IC50 [1]	EC50 [2]	SMILES
18.6 µM		COc1c(C(=O)N2CCN(CCNC(=O)c3cc(O)c(O)c(O)c3)CC2)nc(Cc2ccccc2)n(C)c1=O
> 100 µM		COc1c(C(=O)N2CCN(CCCNC(=O)c3ccc(O)c(O)c3)CC2)nc(Cc2ccccc2)n(C)c1=O
0.9 µM	1.13 µM	COc1c(C(=O)N2CCN(CCCNC(=O)c3cc(O)c(O)c(O)c3)CC2)nc(Cc2ccccc2)n(C)c1=O
3.5 µM	2.76 µM	COc1c(C(=O)N2CCN(CCCNC(=O)c3cc(O)c(O)c(O)c3)CC2)nc(Cc2ccc(C)cc2)n(C)c1=O
18.9 µM	4.39 µM	COc1c(C(=O)N2CCN(CCCNC(=O)c3cc(O)c(O)c(O)c3)CC2)nc(Cc2ccc(F)cc2)n(C)c1=O

Further lines, the molecule ahead of its results:

SMILES	IC50 [1]	EC50 [2]
COc1c(C(=O)N2CCN(CCCNC(=O)c3ccc(O)c(O)c3)CC2)nc(Cc2ccc(O)cc2)n(C)c1=O	> 100 µM	
COc1c(C(=O)N2CCN(CCCNC(=O)c3ccc(O)c(O)c3)CC2)nc(Cc2ccc(F)cc2)n(C)c1=O	> 100 µM	
COc1c(C(=O)N2CCN(CCCNC(=O)c3cc(O)c(O)c(O)c3)CC2)nc(Cc2ccc(Cl)c(Cl)c2)n(C)c1=O	22.4 µM	
COc1c(C(=O)N2CCN(CCNC(=O)c3cc(O)c(O)c(O)c3)CC2)nc(Cc2ccc(F)cc2)n(C)c1=O	2.5 µM	
COc1c(C(=O)N2CCN(CCNC(=O)c3cc(O)c(O)c(O)c3)CC2)nc(Cc2ccc(O)cc2)n(C)c1=O	0.7 µM	
COc1c(C(=O)N2CCN(CCCNC(=O)c3cc(O)c(O)c(O)c3)CC2)nc(Cc2ccc(Cl)cc2)n(C)c1=O	2.4 µM	4.27 µM

From ChEMBL document CHEMBL3396962, “Design and synthesis of N-methylpyrimidone derivatives as HIV-1 integrase inhibitors” (Bioorg Med Chem, 2015)
